Test results from patent publication US20230139171A1 (SITA Information Networking Computing UK Limited, priority 2019, published 2023).

Experiments:
Format in all cases: cell-based
human TLR9 = target: T1, human TLR9 (Homo sapiens, UniProt Q9NR96); test: TLR9 inhibition reporter assay (HEK-Blue cells, SEAP reporter, ODN2006 stimulation); settings: HEK-Blue cells overexpressing human TLR9, SEAP reporter, ODN2006 5 nM
T1 construct: host or cells: HEK-Blue cells
T1 sequence (Q9NR96 26-1032): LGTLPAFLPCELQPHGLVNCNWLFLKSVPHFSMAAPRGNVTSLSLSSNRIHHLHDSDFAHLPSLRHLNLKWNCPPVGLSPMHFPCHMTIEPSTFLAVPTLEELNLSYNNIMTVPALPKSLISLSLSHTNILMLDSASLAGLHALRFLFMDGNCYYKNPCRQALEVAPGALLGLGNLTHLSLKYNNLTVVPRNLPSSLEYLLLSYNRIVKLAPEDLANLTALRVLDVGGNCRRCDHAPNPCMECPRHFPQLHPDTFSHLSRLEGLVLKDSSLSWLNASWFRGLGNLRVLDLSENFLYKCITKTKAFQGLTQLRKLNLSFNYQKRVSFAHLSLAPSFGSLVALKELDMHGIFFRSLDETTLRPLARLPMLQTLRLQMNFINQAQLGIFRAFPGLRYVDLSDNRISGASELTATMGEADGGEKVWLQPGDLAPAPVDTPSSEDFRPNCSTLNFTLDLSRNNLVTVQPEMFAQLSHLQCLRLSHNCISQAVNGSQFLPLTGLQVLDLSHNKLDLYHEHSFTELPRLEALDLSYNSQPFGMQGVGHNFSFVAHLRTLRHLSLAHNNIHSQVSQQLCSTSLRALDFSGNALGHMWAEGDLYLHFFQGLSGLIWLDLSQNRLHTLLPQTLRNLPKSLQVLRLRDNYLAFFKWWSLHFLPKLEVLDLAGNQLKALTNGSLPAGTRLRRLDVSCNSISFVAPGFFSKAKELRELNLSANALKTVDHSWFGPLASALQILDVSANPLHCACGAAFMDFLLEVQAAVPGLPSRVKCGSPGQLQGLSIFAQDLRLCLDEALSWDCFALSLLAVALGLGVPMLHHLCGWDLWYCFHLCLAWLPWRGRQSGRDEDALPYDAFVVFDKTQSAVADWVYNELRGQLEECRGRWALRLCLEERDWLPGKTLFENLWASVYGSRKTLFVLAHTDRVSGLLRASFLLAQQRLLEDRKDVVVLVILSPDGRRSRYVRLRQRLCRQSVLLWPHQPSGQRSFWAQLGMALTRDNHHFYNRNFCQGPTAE
Outline: (§1)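 Dose–response from 0.05 nM to 50 μM was run in HEK-Blue human TLR7, TLR8 and TLR9 reporter cells. After 30 min at room temperature with compound, ligand was added (TLR7 gardiquimod 7.5 μM; TLR8 R848 15.9 μM; TLR9 ODN2006 5 nM) and SEAP measured next day, at 22 h.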

human TLR7 = target: T2, human TLR7 (Homo sapiens, UniProt Q9NYK1); test: TLR7 inhibition reporter assay (HEK-Blue cells, SEAP reporter, gardiquimod stimulation); settings: HEK-Blue cells overexpressing human TLR7, SEAP reporter, gardiquimod 7.5 μM; read-out: TLR7 IC50
T2 construct: host or cells: HEK-Blue cells
T2 sequence (Q9NYK1 27-1049): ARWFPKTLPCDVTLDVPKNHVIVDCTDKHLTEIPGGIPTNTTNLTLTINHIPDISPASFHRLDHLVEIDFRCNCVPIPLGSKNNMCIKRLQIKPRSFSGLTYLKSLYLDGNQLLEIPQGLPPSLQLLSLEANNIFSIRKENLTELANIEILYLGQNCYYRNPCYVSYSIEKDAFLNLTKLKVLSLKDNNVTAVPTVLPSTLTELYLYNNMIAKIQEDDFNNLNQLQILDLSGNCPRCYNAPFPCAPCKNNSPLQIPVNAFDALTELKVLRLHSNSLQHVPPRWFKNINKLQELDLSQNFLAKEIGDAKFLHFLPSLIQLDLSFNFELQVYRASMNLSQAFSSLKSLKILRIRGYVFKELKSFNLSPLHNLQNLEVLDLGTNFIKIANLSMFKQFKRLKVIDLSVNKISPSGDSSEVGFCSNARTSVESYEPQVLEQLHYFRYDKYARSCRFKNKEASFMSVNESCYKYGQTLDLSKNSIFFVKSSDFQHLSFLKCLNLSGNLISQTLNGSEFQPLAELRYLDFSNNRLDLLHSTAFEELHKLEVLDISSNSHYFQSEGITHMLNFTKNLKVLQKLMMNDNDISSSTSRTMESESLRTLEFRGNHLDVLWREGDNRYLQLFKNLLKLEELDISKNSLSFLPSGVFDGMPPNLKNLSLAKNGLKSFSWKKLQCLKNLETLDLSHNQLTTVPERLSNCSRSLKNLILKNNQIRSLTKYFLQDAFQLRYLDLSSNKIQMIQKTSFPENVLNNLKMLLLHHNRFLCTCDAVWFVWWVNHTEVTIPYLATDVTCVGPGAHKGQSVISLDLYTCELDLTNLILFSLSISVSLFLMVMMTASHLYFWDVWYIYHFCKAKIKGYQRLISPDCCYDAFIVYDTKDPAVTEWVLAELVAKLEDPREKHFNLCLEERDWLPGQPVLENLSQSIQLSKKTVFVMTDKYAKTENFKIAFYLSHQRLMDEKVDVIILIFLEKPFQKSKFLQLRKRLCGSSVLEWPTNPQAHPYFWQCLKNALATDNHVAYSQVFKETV
Outline: as §1

human TLR8 = target: T3, human TLR8 (Homo sapiens, UniProt Q9NR97); test: TLR8 inhibition reporter assay (HEK-Blue cells, SEAP reporter, R848 stimulation); settings: HEK-Blue cells overexpressing human TLR8, SEAP reporter, R848 15.9 μM; read-out: TLR8 IC50
T3 construct: host or cells: HEK-Blue cells
T3 sequence (Q9NR97 27-1041): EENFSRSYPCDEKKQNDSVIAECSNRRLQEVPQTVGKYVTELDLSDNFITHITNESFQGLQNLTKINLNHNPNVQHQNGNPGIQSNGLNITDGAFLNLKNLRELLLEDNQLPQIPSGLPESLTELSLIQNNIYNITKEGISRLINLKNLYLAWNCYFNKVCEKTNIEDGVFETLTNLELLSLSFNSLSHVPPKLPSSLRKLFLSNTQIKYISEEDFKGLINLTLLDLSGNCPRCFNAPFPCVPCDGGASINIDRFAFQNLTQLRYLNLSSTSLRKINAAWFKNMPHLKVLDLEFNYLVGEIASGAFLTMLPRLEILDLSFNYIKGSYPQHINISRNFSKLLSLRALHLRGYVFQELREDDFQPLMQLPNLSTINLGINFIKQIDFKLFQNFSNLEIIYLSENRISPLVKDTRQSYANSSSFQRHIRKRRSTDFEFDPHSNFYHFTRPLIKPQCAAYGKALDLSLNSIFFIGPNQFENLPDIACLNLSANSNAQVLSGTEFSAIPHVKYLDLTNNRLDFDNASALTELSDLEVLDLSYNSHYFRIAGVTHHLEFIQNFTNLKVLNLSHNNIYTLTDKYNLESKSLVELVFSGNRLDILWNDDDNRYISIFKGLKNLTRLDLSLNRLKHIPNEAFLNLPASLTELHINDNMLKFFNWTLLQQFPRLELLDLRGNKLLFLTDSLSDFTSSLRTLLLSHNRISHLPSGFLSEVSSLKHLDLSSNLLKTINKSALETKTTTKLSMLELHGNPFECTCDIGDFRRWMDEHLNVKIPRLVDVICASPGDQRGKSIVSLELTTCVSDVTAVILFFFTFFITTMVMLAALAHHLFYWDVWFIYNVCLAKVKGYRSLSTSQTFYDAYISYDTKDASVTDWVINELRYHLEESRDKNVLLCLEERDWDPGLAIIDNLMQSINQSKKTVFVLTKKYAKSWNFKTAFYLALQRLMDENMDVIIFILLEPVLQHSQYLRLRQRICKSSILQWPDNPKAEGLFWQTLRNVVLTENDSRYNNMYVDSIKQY
Outline: as §1

Compound	IC50 (human TLR9) [nM]	IC50 (human TLR7) [nM]	IC50 (human TLR8) [nM]
CC(C)c1c(-c2cn(C)c3ncccc23)[nH]c2sc(C3CCNCC3)nc12 [Example 3, 6-isopropyl-5-(1-methyl-1H-pyrrolo[2,3-b]pyridin-3-yl)-2-(piperidin-4-yl)-4H-pyrrolo[3,2-d]thiazole]	18500	1.84	3.05
Cc1cc(-c2[nH]c3sc(C4CCNCC4)nc3c2C(C)C)cc(C)n1 [Example 4, 5-(2,6-dimethylpyridin-4-yl)-6-isopropyl-2-(piperidin-4-yl)-4H-pyrrolo[3,2-d]thiazole]	287	5.52	33.9
COc1cc(-c2[nH]c3sc(C4CCN(C(=O)CN(C)C)CC4)nc3c2C(C)C)cn2ncnc12 [Example 6, 2-(dimethylamino)-1-(4-(6-isopropyl-5-(8-methoxy-[1,2,4]triazolo[1,5-a]pyridin-6-yl)-4H-pyrrolo[3,2-d]thiazol-2-yl)piperidin-1-yl)ethan-1-one]	1100	2.05	20.9
COc1cc(-c2[nH]c3sc(C4CCN(CC(=O)N(C)C)CC4)nc3c2C(C)C)cn2ncnc12 [Example 7, 2-(4-(6-isopropyl-5-(8-methoxy-[1,2,4]triazolo[1,5-a]pyridin-6-yl)-4H-pyrrolo[3,2-d]thiazol-2-yl)piperidin-1-yl)-N,N-dimethylacetamide]	5470	7.8	6.59
CNC(=O)CN1CCC(c2nc3c(C(C)C)c(-c4cc(OC)c5ncnn5c4)[nH]c3s2)CC1 [Example 8, 2-(4-(6-isopropyl-5-(8-methoxy-[1,2,4]triazolo[1,5-a]pyridin-6-yl)-4H-pyrrolo[3,2-d]thiazol-2-yl)piperidin-1-yl)-N-methylacetamide]	30900	2.47	5.42
COc1cc(-c2[nH]c3sc(C4CCN(C(C)C)CC4)nc3c2C(C)C)cn2ncnc12 [Example 10, 6-isopropyl-2-(1-isopropylpiperidin-4-yl)-5-(8-methoxy-[1,2,4]triazolo[1,5-a]pyridin-6-yl)-4H-pyrrolo[3,2-d]thiazole]	1330	1.37	1.9
COc1cc(-c2[nH]c3sc(C4CCN(C5COC5)CC4)nc3c2C(C)C)cn2ncnc12 [Example 11, 6-isopropyl-5-(8-methoxy-[1,2,4]triazolo[1,5-a]pyridin-6-yl)-2-(1-(oxetan-3-yl)piperidin-4-yl)-4H-pyrrolo[3,2-d]thiazole]	18500	3.78	9.31
COc1cc(-c2[nH]c3sc(C4CCN(C5CCOCC5)CC4)nc3c2C(C)C)cn2ncnc12 [Example 12, 6-isopropyl-5-(8-methoxy-[1,2,4]triazolo[1,5-a]pyridin-6-yl)-2-(1-(tetrahydro-2H-pyran-4-yl)piperidin-4-yl)-4H-pyrrolo[3,2-d]thiazole]	2150	1.59	0.86
COc1cc(-c2[nH]c3sc(C4CCN(CC(C)(C)C)CC4)nc3c2C(C)C)cn2ncnc12 [Example 13, 6-isopropyl-5-(8-methoxy-[1,2,4]triazolo[1,5-a]pyridin-6-yl)-2-(1-neopentylpiperidin-4-yl)-4H-pyrrolo[3,2-d]thiazole]	3330	5.04	2.03
COc1cc(-c2[nH]c3sc(C4CCN(CC5(C)COC5)CC4)nc3c2C(C)C)cn2ncnc12 [Example 14, 6-isopropyl-5-(8-methoxy-[1,2,4]triazolo[1,5-a]pyridin-6-yl)-2-(1-((3-methyloxetan-3-yl)methyl)piperidin-4-yl)-4H-pyrrolo[3,2-d]thiazole]	3840	1.92	0.94
COc1cc(-c2[nH]c3sc(C4CCN(CC(C)(C)O)CC4)nc3c2C(C)C)cn2ncnc12 [Example 15, 1-(4-(6-isopropyl-5-(8-methoxy-[1,2,4]triazolo[1,5-a]pyridin-6-yl)-4H-pyrrolo[3,2-d]thiazol-2-yl)piperidin-1-yl)-2-methylpropan-2-ol]	7810	4.15	3.14
COc1cc(-c2[nH]c3sc(C4CCN(CCS(C)(=O)=O)CC4)nc3c2C(C)C)cn2ncnc12 [Example 16, 6-isopropyl-5-(8-methoxy-[1,2,4]triazolo[1,5-a]pyridin-6-yl)-2-(1-(2-(methylsulfonyl)ethyl)piperidin-4-yl)-4H-pyrrolo[3,2-d]thiazole]	43500	3.09	2.74
Cc1cc(-c2[nH]c3sc(C4CCN(CC(=O)N(C)C)CC4)nc3c2C(C)C)cn2ncnc12 [Example 17, 2-(4-(6-isopropyl-5-(8-methyl-[1,2,4]triazolo[1,5-a]pyridin-6-yl)-4H-pyrrolo[3,2-d]thiazol-2-yl)piperidin-1-yl)-N,N-dimethylacetamide]	3430	8.08	8.27
